In PubChem BioAssay AID977613 (Broad Institute, 2014) one finds active concentration data, which are given here for 65 compounds.

In this test the test system is Broad 7084-01 inhibitor HTS, set 2. As to the kind of experiment: inhibitors in Broad screen 7084-01, set 2 (AID 977613).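 Note: host cells are infected with parasite promastigotes that become internalized.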

Active and inactive are the calls of the source. The rule behind the calls is not given here.

With `O=C(C[C@@H]1CC[C@@H]2[C@H](COC[C@H](O)CN2Cc2ccccc2)O1)NCCc1ccccc1`, the active concentration is > 10 µM (inactive).

On to `O=C(C1CCCCC1)N1C[C@H]2[C@@H](c3ccccc31)[C@H](CO)N2C(=O)Cc1ccccn1`, for which the active concentration was > 10 µM (inactive). In the case of `CCCNC(=O)N1CC(=O)N2[C@H](CO)[C@@H](c3ccc(C#CCC4CCCC4)cc3)[C@H]2C1`, the active concentration is > 10 µM (inactive). With `N#C[C@H]1[C@@H](c2ccccc2-c2cccc(F)c2)[C@@H](CO)N1C(=O)CN1CCOCC1` the figure was > 10 µM (inactive); with `Cc1ccccc1-c1ccc([C@H]2[C@H](CO)N3C(=O)CN(C(=O)Nc4cccc(F)c4)C[C@@H]23)cc1`, > 10 µM (inactive). As to `Cc1cccc(S(=O)(=O)N2CC[C@@H]3[C@H]2c2cc(-c4ccccc4F)ccc2N(C)[C@H]3CO)c1`, the active concentration is > 10 µM (inactive). With `CCCNC(=O)N1CC2(CN(C(=O)Cc3cccnc3)C2)c2c([nH]c3cc(OC)ccc23)[C@H]1CO` the figure was > 10 µM (inactive). With `O=C(Nc1ccc(F)cc1)N1CC(=O)N2[C@H](C1)[C@H](c1ccc(C#Cc3cccnc3)cc1)[C@@H]2CO`, the active concentration is > 10 µM (inactive). With `O=C(c1ccccc1)N1CC(=O)N2[C@H](CO)[C@@H](c3ccc(-c4ccccc4)cc3)[C@H]2C1` the figure was > 10 µM (inactive); with `CN1c2ccc(C3=CCCCC3)cc2[C@H]2[C@H](CCN2C(=O)C2CCCC2)[C@@H]1CO`, > 10 µM (inactive).

With `CN1C(=O)c2cc(NC(=O)Nc3ccccc3Cl)ccc2OC[C@H]2O[C@@H](CC(=O)NCCCN3CCOCC3)CC[C@H]21`, the active concentration is > 10 µM (inactive).

Take `COc1cccc(CN2[C@H](CO)[C@@H](c3ccccc3)C23CN(Cc2ccccc2OC)C3)c1`: the active concentration is > 10 µM (inactive). For the compound `O=C(c1cccc(F)c1)N1CCCCN2[C@H](CO)[C@H](c3ccc(C#CC4(O)CCCC4)cc3)[C@H]2C1`, the active concentration was > 10 µM (inactive). With `Cc1ccc(CN2CC(=O)N3[C@H](C2)[C@@H](c2ccc(-c4ccccc4F)cc2)[C@@H]3CO)cc1` the figure was > 10 µM (inactive); with `O=C(C1CCOCC1)N1CC(=O)N2[C@H](CO)[C@H](c3ccc(C#CCc4ccccc4)cc3)[C@@H]2C1`, > 10 µM (inactive); with `CCC(=O)N1[C@@H]2Cn3c(ccc(-c4ccc(F)cc4)c3=O)[C@H]1[C@@H](C(=O)OC)[C@@H]2CO`, > 10 µM (inactive). With `CCCNC(=O)N1CC(=O)N2[C@@H](CO)[C@@H](c3ccc(C#CCC4CCCC4)cc3)[C@@H]2C1`, the active concentration was > 10 µM (inactive). On to `CCC(=O)N1[C@@H]2Cn3c(ccc(-c4ccncc4)c3=O)[C@H]1[C@@H](C(=O)NC1Cc3ccccc3C1)[C@@H]2CO`, for which the active concentration is > 10 µM (inactive). Take `O=C(C1CCCCC1)N1CC2(C1)[C@@H](c1ccccc1)[C@H](CO)N2C(=O)c1cccnc1`: the active concentration was > 10 µM (inactive). Regarding `CC(=O)N1[C@H](CO)[C@@H](c2ccccc2)C12CN(C(=O)Cc1ccccc1)C2`, the active concentration was > 10 µM (inactive). With `CCCNC(=O)N1CC2(C1)[C@@H](c1ccccc1)[C@@H](CO)N2Cc1ccccn1` the figure was > 10 µM (inactive).

`CN(C)CC(=O)N1[C@H](CO)[C@H](c2ccccc2-c2ccccc2F)[C@@H]1C#N`: the active concentration is > 10 µM (inactive). Under `Cc1noc(C)c1NC(=O)N1C[C@H](O)COC[C@H]2O[C@@H](CC(=O)NCC3CCCCC3)CC[C@@H]21` stands > 10 µM (inactive); under `CN(C)CC(=O)N1CCCCN2[C@H](CO)[C@H](c3ccc(/C=C/c4ccccc4)cc3)[C@H]2C1`, under 10 µM; under `O=C(Nc1ccccc1F)N1CC(=O)N2[C@H](C1)[C@H](c1ccc(-c3cccnc3)cc1)[C@@H]2CO`, > 10 µM (inactive). Take `O=C1CNC[C@H]2[C@@H](c3ccc(C#CC4CCCCC4)cc3)[C@@H](CO)N12`: the active concentration was > 10 µM (inactive). Turning to `COc1ccc2c3c([nH]c2c1)[C@H](CO)N(C(=O)C1CCOCC1)CC31CN(C(=O)NC(C)C)C1`, the active concentration was > 10 µM (inactive).

In the case of `COc1ccc(NC(=O)N2CC(=O)N3[C@H](CO)[C@H](c4ccc(Br)cc4)[C@H]3C2)cc1`, the active concentration is > 10 µM (inactive). With `O=C(C[C@@H]1CC[C@H]2[C@@H](COC[C@@H](O)CN2C(=O)Nc2ccc(Cl)c(Cl)c2)O1)NCc1ccc(Cl)cc1` the figure was > 10 µM (inactive). Under `COC(=O)C[C@@H]1CC[C@@H]2[C@@H](COc3ccc(NC(=O)c4cccc(Cl)c4)cc3C(=O)N2C)O1` stands > 10 µM (inactive); under `O=C1CNC[C@H]2[C@@H](c3ccc(C4=CCCC4)cc3)[C@@H](CO)N12`, > 10 µM (inactive); under `C/C=C/c1ccc([C@@H]2[C@H](CO)N3CCCCN(S(=O)(=O)c4ccc(OC)cc4)C[C@@H]23)cc1`, > 10 µM (inactive). Under `O=C(C1CCOCC1)N1CC(=O)N2[C@@H](CO)[C@H](c3ccc(-c4cccnc4)cc3)[C@@H]2C1` stands > 10 µM (inactive); under `C/C=C/c1ccc([C@@H]2[C@H](CO)N(C(=O)CC)C23CN(CCC(F)(F)F)C3)cc1`, > 10 µM (inactive); under `N#C[C@@H]1[C@H](c2ccccc2C2=CCCCC2)[C@H](CO)N1S(=O)(=O)c1cccc(F)c1`, > 10 µM (inactive). In the case of `O=C(C[C@@H]1CC[C@H]2[C@@H](COC[C@H](O)CN2Cc2ccc(Cl)cc2)O1)NCc1ccccc1Cl`, the active concentration is > 10 µM (inactive). Under `N#C[C@H]1[C@@H](c2ccccc2C2=CCCC2)[C@@H](CO)N1S(=O)(=O)c1ccccc1` stands > 10 µM (inactive); under `OC[C@@H]1[C@@H]2c3ccccc3NC[C@@H]2N1Cc1cccnc1`, > 10 µM (inactive). As for `O=C(C[C@H]1CC[C@@H]2[C@H](COC[C@@H](O)CN2C(=O)C2CC2)O1)NCc1ccncc1`, the active concentration is > 10 µM (inactive).

Take `O=C(C1CCOCC1)N1CC(=O)N2[C@H](C1)[C@H](c1ccc(-c3cccnc3)cc1)[C@@H]2CO`: the active concentration was > 10 µM (inactive). With `O=C(C[C@H]1CC[C@H]2[C@@H](COC[C@H](O)CN2CCC(F)(F)F)O1)NCC1CC1` the figure was > 10 µM (inactive).

Regarding `CCCNC(=O)N1[C@H](C#N)[C@H](c2ccccc2-c2ccccc2F)[C@@H]1CO`, the active concentration is > 10 µM (inactive). With `CN1CCN(C(=O)C[C@H]2CC[C@@H]3[C@H](COC[C@@H](O)CN3C(=O)C3CC3)O2)CC1` the figure was > 10 µM (inactive). With `O=C(Nc1ccccc1F)N1CC(=O)N2[C@H](CO)[C@@H](c3ccc(-c4cccnc4)cc3)[C@@H]2C1` the figure was > 10 µM (inactive); with `CCC(=O)N1CC2(C1)[C@@H](c1ccccc1)[C@@H](CO)N2C(=O)NC(C)C`, > 10 µM (inactive); with `N#C[C@H]1[C@H](c2ccccc2-c2ccccc2F)[C@@H](CO)N1C(=O)Cc1ccccc1`, > 10 µM (inactive). Under `CCCNC(=O)N1[C@H](CO)[C@H](c2ccccc2-c2ccccc2F)[C@@H]1C#N` stands > 10 µM (inactive). For `COc1ccc2c3c([nH]c2c1)[C@@H](CO)N(C(=O)C1CCC1)CC31CN(C(=O)c2ccccn2)C1`, the active concentration is > 10 µM (inactive). With `COCCNC(=O)[C@@H]1[C@@H](CO)[C@@H]2Cn3c(cccc3=O)[C@H]1N2S(=O)(=O)c1ccccc1C` the figure was > 10 µM (inactive). Under `CC(C)CC#Cc1ccc([C@@H]2[C@H](CO)N3C(=O)CN(C(=O)c4ccccn4)C[C@@H]23)cc1` stands > 10 µM (inactive); under `COc1ccc2c3c(n(C)c2c1)[C@H](CO)N(S(=O)(=O)c1ccc(C)cc1)CC31CCN(C)CC1`, > 10 µM (inactive). `Cc1ccccc1-c1ccc([C@@H]2[C@@H](CO)N3C(=O)CN(S(C)(=O)=O)C[C@@H]23)cc1`: the active concentration is > 10 µM (inactive). Under `CC(C)(O)C#Cc1ccc([C@H]2[C@H](CO)N3CCCCN(S(C)(=O)=O)C[C@@H]23)cc1` stands > 10 µM (inactive).

Take `COCC(=O)N1[C@H](CO)[C@@H](c2ccccc2-c2ccccc2F)[C@@H]1C#N`: the active concentration is under 10 µM.

Take `O=C(O)[C@H]1[C@H](CO)[C@H]2Cn3c(ccc(/C=C/c4ccccc4)c3=O)[C@H]2N1Cc1ccc2c(c1)OCO2`: the active concentration is > 10 µM (inactive). Consider `O=C(C[C@@H]1CC[C@@H]2[C@H](COC[C@H](O)CN2Cc2nccs2)O1)NCc1ccccc1`, for which the active concentration was > 10 µM (inactive). Under `COc1cccc(NC(=O)N2CC(=O)N3[C@@H](CO)[C@H](c4ccc(C5=CCCCC5)cc4)[C@@H]3C2)c1` stands > 10 µM (inactive); under `O=C1CNC[C@@H]2[C@@H](c3ccc(C#CC4CCCCC4)cc3)[C@H](CO)N12`, > 10 µM (inactive).

Turning to `O=C(CN1CCOCC1)N1CCCCN2[C@H](CO)[C@@H](c3ccc(Br)cc3)[C@@H]2C1`, the active concentration was > 10 µM (inactive). In the case of `COc1ccc(NC(=O)N2CC(=O)N3[C@H](CO)[C@H](c4ccc(Br)cc4)[C@@H]3C2)cc1`, the active concentration is > 10 µM (inactive). Under `O=C(NCc1cc(F)cc(F)c1)[C@@H]1[C@@H](CO)[C@@H]2Cn3c(cccc3=O)[C@H]1N2` stands > 10 µM (inactive); under `COC(=O)[C@@H]1[C@@H](CO)[C@@H]2Cn3c(cccc3=O)[C@H]1N2Cc1nccs1`, > 10 µM (inactive).

As to `CC1C=NC(S(=O)(=O)N2CC[C@H]3[C@@H](CO)N(C)c4ccc(-c5ccccc5F)cc4[C@H]32)=N1` (stereo not given in full), the active concentration was > 10 µM (inactive). With `O=C(C[C@H]1CC[C@@H]2[C@H](COC[C@H](O)CN2Cc2ccc(Cl)cc2)O1)NCc1ccccc1Cl` the figure was > 10 µM (inactive). Turning to `CN(C)C(=O)C[C@H]1CC[C@H]2[C@@H](COC[C@@H](O)CN2C(=O)C2CC2)O1`, the active concentration is > 10 µM (inactive).
